In BigSolDB 2.1:

CO/N=C(\C(=O)N[C@@H]1C(=O)N2C(C(=O)[O-])=C(COC(C)=O)CS[C@H]12)c1csc(N)n1.[Na+]
solubility (mole fraction)
Conditions | in DMF | in DMSO | in NMP | in formamide | in water
278.15 K | 0.0407 | – | 0.000254 | 0.0483 | 0.018
280.15 K | 0.0413 | – | 0.000935 | 0.0503 | 0.0181
282.15 K | – | – | – | – | 0.0182
283.15 K | 0.0436 | – | 0.00152 | 0.053 | 0.0183
285.15 K | 0.0462 | – | 0.00192 | 0.0562 | 0.0184
287.15 K | – | – | – | – | 0.0184
288.15 K | 0.0474 | – | 0.00279 | 0.0596 | 0.0184
290.15 K | 0.0537 | – | 0.00383 | 0.0615 | 0.0185
292.15 K | – | – | – | – | 0.0186
293.15 K | 0.057 | 0.0738 | 0.00524 | 0.0644 | 0.0188
295.15 K | 0.06 | 0.0744 | 0.00869 | 0.0652 | 0.0188
297.15 K | – | 0.0751 | – | – | 0.0189
298.15 K | 0.0662 | 0.0755 | 0.0118 | 0.0674 | 0.0189
300.15 K | 0.069 | 0.077 | 0.038 | 0.0688 | –
302.15 K | – | 0.0777 | – | – | –
303.15 K | 0.0757 | 0.0779 | 0.0737 | 0.0702 | –
305.15 K | 0.0785 | 0.0783 | 0.083 | 0.0719 | –
307.15 K | – | 0.0785 | – | – | –
308.15 K | 0.0845 | 0.0788 | 0.103 | 0.0733 | –
